In patent US6454828B1 (Nulex, Inc., priority 2000, dated 2002):

Assays:
Pioneer brand 34RO7 corn = experiment: Greenhouse evaluation study on use of ZDC as zinc fertilizer on corn; type: in vivo; conditions: for Dry Matter: corn harvested at 5-6 leaf stage, low-Zn Wymore silt loam soil; for Uptake P / Uptake Zn: calculated as dry matter times concentration; for Plant concentration P / Plant concentration Zn: dry plant material, ICP
Protocol: A greenhouse study was conducted to evaluate ZDC.
The soil source was a surface soil from a severely eroded Wymore silt loam soil (fine, smectitic, mesic Aquertic Argiudolls). Zinc deficiency symptoms on corn had been observed on the site during the 1999 growing season.
The soil was air-dried and sieved through a 1 cm coarse sieve. Five and one-half inch top diameter, plastic-lined pots were used. For each pot, 1600 g of soil was weighed into a plastic bag, and 1 g of monoammonium phosphate (11-52-0) was added to the plastic bags as a nitrogen and phosphorous source to ensure adequate growth. The MPA/soil was thoroughly mixed. About ⅔ of the soil from the thoroughly mixed MAP/soil was added to the plastic-lined pot, with roughly 2 inches of soil remaining to be added to the pot after starter fertilizer application and seed planting. A small furrow was made across the pot and a MAP/zinc starter mix added. An inch of soil was added and 4 seeds of Pioneer brand 34RO7 corn was planted directly over the fertilizer band, and the rest of the soil was added to the pot to cover the seed to one inch deep. Planting was on March 24. The fertilizer rate was calculated as a starter band rate based on the linear feet in an acre planted in 30 inch rows. A 5″ length of row was used in the calculations. […] Six replications were used. Pots were watered from the surface using distilled water. All pots received a blanket application of (NH4)2SO4 at the rate of 50#N/acre at the initial watering and twice more during the duration of the study.
Pots were thinned to three plants per pot approximately 1 week after emergence. Plants were harvested April 28 for dry matter yield by clipping about one-half inch above the soil surface. Samples were oven-dried at 65° C. for 48 hours and weighed.
The dry plant material was ground through a stainless steel small plant grinder to pass a 2 mm sieve. A quarter gram was weighed, wet-ashed with nitric-perchloric acid, and P and Zn concentration determined using an inductive couple plasma (ICP) instrument. Zinc and P uptake were calculated as dry matter times concentration.

[1] = Hydroscopicity check: granulated material stored overnight in the open; type: physicochemical; conditions: for Hydroscopicity of granulated material (in words): material melt-granulated at about 340-360° F.; for % Gain (weight, stored in the open): 24 hrs
Protocol: A sample of the material granulated in the previous run at about 350° F. was screened, and the material falling into a −8 mesh class was stored overnight in the open to check for hydroscopicity.

[2] = ambient temperatures; cited from earlier work

| Hydroscopicity of granulated material (in words) [1] | Hydroscopicity of granulated material (in words) ([1]; listed as Zn(NH3)2Cl2) | % Gain (weight, stored in the open) ([1]; −4+6 mesh granulated material) [%] | Weight gained at 24 hrs. ([1]; −4+6 mesh granulated material, starting Wt. 5.0774) | % Gain (weight, stored in the open) ([1]; −8 mesh granulated material) [%] | Weight gained at 24 hrs. ([1]; −8 mesh granulated material, starting Wt. 5.5600) | SMILES | Plant height, visual (10# Zn vs 1# Zn) (Pioneer brand 34RO7 corn; 10# Zn as ZDC compared with 1# Zn as ZDC, from shortly after emergence throughout the study) | Dry Matter (Pioneer brand 34RO7 corn; Zn rate 1 lb/ac as starter band) [g/pot] | Uptake P (Pioneer brand 34RO7 corn; Zn rate 1 lb/ac) [mg/pot] | Uptake Zn (Pioneer brand 34RO7 corn; Zn rate 1 lb/ac) | Plant concentration P (Pioneer brand 34RO7 corn; Zn rate 1 lb/ac) | Plant concentration Zn (Pioneer brand 34RO7 corn; Zn rate 1 lb/ac) [ppm] | Dry Matter (Pioneer brand 34RO7 corn; Zn rate 10 lb/ac as starter band) [g/pot] | Uptake P (Pioneer brand 34RO7 corn; Zn rate 10 lb/ac) [mg/pot] | Uptake Zn (Pioneer brand 34RO7 corn; Zn rate 10 lb/ac) | Plant concentration P (Pioneer brand 34RO7 corn; Zn rate 10 lb/ac) | Plant concentration Zn (Pioneer brand 34RO7 corn; Zn rate 10 lb/ac) [ppm] | Zinc content of solution (solubility) [2] [% zinc] |
| --- | --- | --- | --- | --- | --- | --- | --- | --- | --- | --- | --- | --- | --- | --- | --- | --- | --- | --- |
| very low hydroscopicity | did not appear to be hydroscopic | 0.18 | 0.0091 | 0.37 | 0.0206 | N.N.[Cl][Zn][Cl] [ZDC, Zinc diammine chloride] | slightly shorter | 7.88 | 28.4 | .21 μg/pot | .36% | 27 | 7.44 | 24.6 | .35 μg/pot | .33% | 47 | – |
| – | – | – | – | – | – | [Cl-].[Cl-].[Zn+2] [zinc chloride] | – | – | – | – | – | – | – | – | – | – | – | 30 |
